Drawing on patent US20240116877A1, “KIT KINASE INHIBITORS AND METHODS OF USE THEREOF” (Deciphera Pharmaceuticals, LLC, priority 2021, published 2024), this text covers IC50 for 14 molecules.

One experiment relates to Ba/F3 KIT mutant cells. The experiment can be described thus: Ba/F3 mutant KIT Cell Proliferation Assays (resazurin). Format: cell-based. The settings on record: Mus musculus, BaF3. Summed up:
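IC50 values come from resazurin fluorescence (ex 540, em 600) after 5 h dye exposure, added as a 440 μM solution. Cells were IL-3-independent Ba/F3 expressing mutant KIT from a lentiviral vector, puromycin-selected.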

A further experiment addresses c-KIT kinase (uKIT) (Homo sapiens (Human), UniProt P10721). The experiment can be described thus: Biochemical Assay for uKIT (coupled pyruvate kinase/lactate dehydrogenase assay). As to conditions: Inhibition of biochemical activity of uKIT kinase; 1 mM ATP. Summed up:
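IC50 from percent inhibition of reaction rate over 2-3 h, relative to no-compound and known-inhibitor controls. KIT enzyme (16 nM or 4.36 nM, two sequences) ran with 1 mM ATP and 0.7 mg/mL PE4Y in Tris pH 7.5, 30° C; ATP turnover coupled to NADH loss at 340 nm.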

For the next experiment, the system named is GIST 430 cells. The experiment can be described thus: GIST 430 Cell Proliferation Assay (resazurin). Format: cell-based. As to conditions: Homo sapiens; GIST430 cell proliferation. In short, it runs like this: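 Five thousand cells per well were exposed to serially diluted compound in complete growth medium for 115 h at 37 degrees Celsius, 5% CO2. Resazurin was then added for a further 5 h, fluorescence read at 540 nm excitation/600 nm emission, and IC50 values calculated.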

[1] abbreviates: Ba/F3 KIT AYdup-V654A mutant cell proliferation, read-out: AYdup-V654A IC50.
[2] abbreviates: Ba/F3 KIT exon11del-V654A mutant cell proliferation, read-out: exon11del-V654A IC50.
[3] abbreviates: Ba/F3 KIT exon11del-Y823D mutant cell proliferation, read-out: exon11del-Y823D IC50.
The mark [4] stands for this setting: Ba/F3 KIT AYdup mutant cell proliferation, read-out: AYdup IC50.
The mark [5] stands for this setting: Ba/F3 KIT AYdup-D816G mutant cell proliferation, read-out: AYdup-D816G IC50.

Like-named read-outs stand apart in the source and are kept apart here.

Sequence of c-KIT kinase (uKIT) (P10721 other isoform, or with tags, fused parts or gaps): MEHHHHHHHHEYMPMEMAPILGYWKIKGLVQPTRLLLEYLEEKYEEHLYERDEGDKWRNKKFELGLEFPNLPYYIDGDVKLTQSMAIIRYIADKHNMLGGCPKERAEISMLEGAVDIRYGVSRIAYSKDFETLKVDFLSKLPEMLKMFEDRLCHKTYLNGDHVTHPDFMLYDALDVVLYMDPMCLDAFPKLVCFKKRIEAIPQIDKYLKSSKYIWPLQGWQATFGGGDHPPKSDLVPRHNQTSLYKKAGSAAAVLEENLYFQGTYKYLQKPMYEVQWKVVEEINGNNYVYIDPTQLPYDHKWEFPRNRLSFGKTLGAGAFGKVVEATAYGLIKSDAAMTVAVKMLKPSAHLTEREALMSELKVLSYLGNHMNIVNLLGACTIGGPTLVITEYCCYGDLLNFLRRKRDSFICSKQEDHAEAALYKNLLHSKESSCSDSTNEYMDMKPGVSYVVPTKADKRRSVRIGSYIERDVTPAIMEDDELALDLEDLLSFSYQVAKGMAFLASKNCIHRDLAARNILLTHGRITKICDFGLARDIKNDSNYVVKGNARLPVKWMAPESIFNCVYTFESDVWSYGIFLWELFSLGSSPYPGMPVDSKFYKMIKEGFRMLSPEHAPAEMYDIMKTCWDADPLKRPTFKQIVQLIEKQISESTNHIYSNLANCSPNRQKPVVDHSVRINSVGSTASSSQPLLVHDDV

Take `CC(C)Oc1cc(F)c2c(Nc3ccc(NC(=O)NCCC(C)(C)F)cc3)ncnc2c1` [Example 6, 1-(3-fluoro-3-methylbutyl)-3-(4-((5-fluoro-7-isopropoxyquinazolin-4-yl)amino)phenyl)urea]: the IC50 in the experiment on Ba/F3 KIT mutant cells (setting [1]) is 100 to 1000 nM; in the experiment on Ba/F3 KIT mutant cells (setting [2]), not above 10 nM; in the experiment with Ba/F3 KIT mutant cells (setting [3]) it was 100 to 1000 nM; against c-KIT kinase (uKIT), not above 10 nM; in the experiment with GIST 430 cells, 10 to 100 nM.
With `COCCOc1cc(F)c2c(Nc3ccc(NC(=O)CC(=O)NCCC(C)(C)C)cc3)ncnc2c1` [Example 82], the IC50 in the experiment on Ba/F3 KIT mutant cells (setting [1]) is 10 to 100 nM; in the experiment with Ba/F3 KIT mutant cells (setting [2]), not above 10 nM; with Ba/F3 KIT mutant cells (setting [3]), 100 to 1000 nM; at c-KIT kinase (uKIT), not above 10 nM; in the experiment on GIST 430 cells, 10 to 100 nM.
Consider `COCCOc1cc(F)c2c(Nc3ccc(NC(=O)CC(=O)NCC(C)(C)COC)cc3)ncnc2c1` [Example 86], for which the IC50 is 10 to 100 nM with Ba/F3 KIT mutant cells (setting [1]); 10 to 100 nM with Ba/F3 KIT mutant cells (setting [2]); more than 1000 nM in the experiment with Ba/F3 KIT mutant cells (setting [3]); 10 to 100 nM against c-KIT kinase (uKIT); 10 to 100 nM with GIST 430 cells.
For the molecule `COCCOc1cc(F)c2c(Nc3ccc(NC(=O)CCC(=O)N(C)C(C)C)cc3)ncnc2c1` [Example 67], the IC50 fell in the range of 100 to 1000 nM in the experiment with Ba/F3 KIT mutant cells (setting [1]); 10 to 100 nM in the experiment with Ba/F3 KIT mutant cells (setting [2]); 10 to 100 nM with Ba/F3 KIT mutant cells (setting [3]); 10 to 100 nM at c-KIT kinase (uKIT); 100 to 1000 nM with GIST 430 cells.
In the case of `COCCOc1cc(F)c2c(Nc3ccc(NC(=O)CC(=O)NCC4(C)COC4)cc3)ncnc2c1` [Example 132], the IC50 lay within 100 to 1000 nM in the experiment on Ba/F3 KIT mutant cells (setting [1]), 10 to 100 nM in the experiment on Ba/F3 KIT mutant cells (setting [2]), 10 to 100 nM at c-KIT kinase (uKIT) and 100 to 1000 nM in the experiment on GIST 430 cells.
With `COCCOc1cc(F)c2c(Nc3ccc(NC(=O)CC(=O)N4CCC(C)(C)CC4)cc3)ncnc2c1` [Example 152], the IC50 with Ba/F3 KIT mutant cells (setting [1]) is 10 to 100 nM; with Ba/F3 KIT mutant cells (setting [2]) it was 10 to 100 nM; with Ba/F3 KIT mutant cells (setting [3]) it was 100 to 1000 nM; at c-KIT kinase (uKIT), 10 to 100 nM; with GIST 430 cells, 10 to 100 nM.
As to `COCCOc1cc(F)c2c(Nc3ccc(NC(=O)OCCC(C)(C)F)cc3)ncnc2c1` [Example 52], the IC50 in the experiment on Ba/F3 KIT mutant cells (setting [4]) is not above 10 nM; with Ba/F3 KIT mutant cells (setting [5]), 10 to 100 nM; in the experiment with Ba/F3 KIT mutant cells (setting [1]), 100 to 1000 nM; in the experiment on Ba/F3 KIT mutant cells (setting [2]), 10 to 100 nM; with Ba/F3 KIT mutant cells (setting [3]) it was 100 to 1000 nM; against c-KIT kinase (uKIT), 10 to 100 nM. For the same molecule, in the experiment on GIST 430 cells, the IC50 lay in the range of 10 to 100 nM.
As to `COCCOc1cc(F)c2c(Nc3ccc(NC(=O)NCCN4CCCC4=O)cc3)ncnc2c1` [Example 54], the IC50 with Ba/F3 KIT mutant cells (setting [4]) is 10 to 100 nM; in the experiment with Ba/F3 KIT mutant cells (setting [5]), 100 to 1000 nM; in the experiment with Ba/F3 KIT mutant cells (setting [1]), 100 to 1000 nM; with Ba/F3 KIT mutant cells (setting [2]), 100 to 1000 nM; in the experiment on Ba/F3 KIT mutant cells (setting [3]) it was 100 to 1000 nM; on c-KIT kinase (uKIT) it was 10 to 100 nM. Moreover, in the experiment with GIST 430 cells, the IC50 fell in the range of 10 to 100 nM.
As to `COCCOc1cc(F)c2c(Nc3ccc(NC(=O)CC(=O)NC4CCC4(C)C)cc3)ncnc2c1` (stereo not drawn) [Example 168], the IC50 with Ba/F3 KIT mutant cells (setting [1]) was 10 to 100 nM; in the experiment with Ba/F3 KIT mutant cells (setting [2]), 10 to 100 nM; in the experiment on Ba/F3 KIT mutant cells (setting [3]), 10 to 100 nM; on c-KIT kinase (uKIT), 10 to 100 nM; in the experiment with GIST 430 cells, not above 10 nM.
For the molecule `COCCOc1cc(F)c2c(Nc3ccc(NC(=O)NC4CC(C)(C)C4)nc3)ncnc2c1` [Example 25], the IC50 was more than 1000 nM with Ba/F3 KIT mutant cells (setting [1]), more than 1000 nM in the experiment with Ba/F3 KIT mutant cells (setting [2]), 100 to 1000 nM against c-KIT kinase (uKIT) and more than 1000 nM in the experiment with GIST 430 cells.
Regarding `COCCOc1cc(F)c2c(Nc3ccc(NC(=O)CC(=O)NCC4(C)CCOCC4)cc3)ncnc2c1` [Example 109], the IC50 is 100 to 1000 nM in the experiment with Ba/F3 KIT mutant cells (setting [1]); 10 to 100 nM with Ba/F3 KIT mutant cells (setting [2]); more than 1000 nM in the experiment with Ba/F3 KIT mutant cells (setting [3]); 10 to 100 nM at c-KIT kinase (uKIT); 10 to 100 nM in the experiment with GIST 430 cells.
`COCCOc1cc(F)c2c(Nc3ccc(NC(=O)CC(=O)NCC4CCC4)cc3)ncnc2c1` [Example 90]: the IC50 with Ba/F3 KIT mutant cells (setting [1]) was more than 1000 nM; in the experiment on Ba/F3 KIT mutant cells (setting [2]) it was not above 10 nM; with Ba/F3 KIT mutant cells (setting [3]) it was 100 to 1000 nM; at c-KIT kinase (uKIT), not above 10 nM; in the experiment with GIST 430 cells, 10 to 100 nM.
In the case of `COCCOc1cc(OC)c2c(Nc3ccc(NC(=O)CC(=O)N(C)C(C)(C)C)cc3)ncnc2c1` [Example 192], the IC50 in the experiment with Ba/F3 KIT mutant cells (setting [1]) lay within 10 to 100 nM; in the experiment with Ba/F3 KIT mutant cells (setting [2]), 100 to 1000 nM; in the experiment with Ba/F3 KIT mutant cells (setting [3]), 10 to 100 nM; on c-KIT kinase (uKIT), 10 to 100 nM; in the experiment on GIST 430 cells, 10 to 100 nM.
`CC(C)(F)CCNC(=O)Nc1ccc(Nc2ncnc3cc(OC4COC4)cc(F)c23)cc1` [Example 175]: the IC50 was 10 to 100 nM in the experiment with Ba/F3 KIT mutant cells (setting [1]); 10 to 100 nM with Ba/F3 KIT mutant cells (setting [2]); 10 to 100 nM in the experiment with Ba/F3 KIT mutant cells (setting [3]); not above 10 nM against c-KIT kinase (uKIT); 10 to 100 nM in the experiment on GIST 430 cells.
